Test results published in US8455475B2 (Gruenenthal GmbH, priority 2009, dated 2013).

Each compound was assayed against T1, rat B1R (bradykinin receptor 1) (Rattus norvegicus, UniProt P97583) (assay: FLIPR Ca2+ assay (Fluo-4) on CHO K1 cells stably transfected with the B1R gene of the rat (rB1R cells): % inhibition at 10 μM / IC50, agonist Des-Arg9-bradykinin). Details: CHO-K1, rat B1R.
T1 construct: expressed in transfected cells; host or cells: CHO K1 cells
T1 sequence (P97583 1-337): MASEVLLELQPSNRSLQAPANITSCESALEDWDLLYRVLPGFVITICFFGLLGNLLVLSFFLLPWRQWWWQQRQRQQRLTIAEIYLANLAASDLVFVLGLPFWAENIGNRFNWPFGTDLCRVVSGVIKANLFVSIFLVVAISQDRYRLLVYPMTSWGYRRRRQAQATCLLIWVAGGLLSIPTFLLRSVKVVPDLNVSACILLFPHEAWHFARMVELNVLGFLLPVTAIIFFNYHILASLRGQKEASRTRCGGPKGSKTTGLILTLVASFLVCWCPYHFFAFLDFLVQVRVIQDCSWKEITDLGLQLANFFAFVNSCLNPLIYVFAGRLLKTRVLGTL
Format: cell-based
Method in brief: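 Peak fluorescence counts read on FLIPR (λex 488, λem 540 nm) after two additions: compound first, then agonist at EC80 after 10–20 min. Human line challenged with Lys-Des-Arg9-bradykinin, rat line with Des-Arg9-bradykinin. Suppression of Ca2+ inflow expressed as % of maximum inhibition.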

inhibition at 10 µM [%] | Compound
51 | O=C(NC1CCc2ccc(C(=O)N3CCC4(CCN(S(=O)(=O)c5ccc(F)cc5F)CC4)C3)cc21)c1ccccc1Cl (stereo not drawn) [IND_CC-500, 2-Chloro-N-[6-[8-[(2,4-difluoro-phenyl)sulfonyl]-2,8-diazaspiro[4.5]decane-2-carbonyl]-2,3-dihydro-1H-inden-1-yl]-benzamide]
56 | N#Cc1ccccc1S(=O)(=O)N1CCC2(CCN(C(=O)c3ccc4c(c3)C(NC(=O)c3ccccc3Cl)CC4)C2)CC1 (stereo not drawn) [IND_CC-501, 2-Chloro-N-[6-[8-[(2-cyano-phenyl)sulfonyl]-2,8-diazaspiro[4.5]decane-2-carbonyl]-2,3-dihydro-1H-inden-1-yl]-benzamide]
71 | O=C(NC1CCc2ccc(C(=O)N3CCC4(CCN(C(=O)Nc5ccc(F)c(Cl)c5)CC4)C3)cc21)c1ccccc1Cl (stereo not drawn) [IND_CC-502, 2-[3-[(2-Chloro-benzoyl)amino]-2,3-dihydro-1H-indene-5-carbonyl]-N-(3-chloro-4-fluoro-phenyl)-2,8-diazaspiro[4.5]decane-8-carboxylic acid amide]
66 | N#Cc1cccc(NC(=O)N2CCC3(CC2)CCN(C(=O)c2ccc4c(c2)C(NC(=O)c2ccccc2Cl)CC4)C3)c1 (stereo not drawn) [IND_CC-503, 2-[3-[(2-Chloro-benzoyl)amino]-2,3-dihydro-1H-indene-5-carbonyl]-N-(3-cyano-phenyl)-2,8-diazaspiro[4.5]decane-8-carboxylic acid amide]
51 | O=C(NC1CCc2ccc(C(=O)N3CCC4(CCN(Cc5c(F)cccc5F)CC4)C3)cc21)c1ccccc1Cl (stereo not drawn) [IND_CC-504, 2-Chloro-N-[6-[8-[(2,6-difluoro-phenyl)-methyl]-2,8-diazaspiro[4.5]decane-2-carbonyl]-2,3-dihydro-1H-inden-1-yl]-benzamide]
67 | CN(C(=O)c1ccccc1Cl)C1CCc2ccc(C(=O)N3CCC4(CCN(Cc5ccccc5C#N)CC4)C3)cc21 (stereo not drawn) [IND_CC-505, 2-Chloro-N-[6-[8-[(2-cyano-phenyl)-methyl]-2,8-diazaspiro[4.5]decane-2-carbonyl]-2,3-dihydro-1H-inden-1-yl]-N-methyl-benzamide]
61 | CN(C(=O)c1ccccc1Cl)C1CCc2ccc(C(=O)N3CCC4(CCN(Cc5ccc6nccnc6c5)CC4)C3)cc21 (stereo not drawn) [IND_CC-506, 2-Chloro-N-methyl-N-[6-[8-(quinoxalin-6-yl-methyl)-2,8-diazaspiro[4.5]decane-2-carbonyl]-2,3-dihydro-1H-inden-1-yl]-benzamide]
100 | O=C(NC1CCc2ccc(C(=O)N3CCC4(CCN(Cc5c[nH]cn5)CC4)CC3)cc21)c1ccccc1Cl (stereo not drawn) [IND_CC-508, 2-Chloro-N-[6-[9-(1H-imidazol-4-yl-methyl)-3,9-diazaspiro[5.5]undecane-3-carbonyl]-2,3-dihydro-1H-inden-1-yl]-benzamide]
101 | O=C(NC1CCc2ccc(C(=O)N3CCC4(CCN(Cc5ccccn5)CC4)CC3)cc21)c1ccccc1Cl (stereo not drawn) [IND_CC-509, 2-Chloro-N-[6-[9-(pyridin-2-yl-methyl)-3,9-diazaspiro[5.5]undecane-3-carbonyl]-2,3-dihydro-1H-inden-1-yl]-benzamide]
94 | O=C(NC1CCc2ccc(C(=O)N3CCC4(CCN(Cc5cccnc5)CC4)CC3)cc21)c1ccccc1Cl (stereo not drawn) [IND_CC-511, 2-Chloro-N-[6-[9-(pyridin-3-yl-methyl)-3,9-diazaspiro[5.5]undecane-3-carbonyl]-2,3-dihydro-1H-inden-1-yl]-benzamide]
92 | Cn1cccc1CN1CCC2(CC1)CCN(C(=O)c1ccc3c(c1)C(NC(=O)c1ccccc1Cl)CC3)CC2 (stereo not drawn) [IND_CC-512, 2-Chloro-N-[6-[9-[(1-methyl-1H-pyrrol-2-yl)-methyl]-3,9-diazaspiro[5.5]undecane-3-carbonyl]-2,3-dihydro-1H-inden-1-yl]-benzamide]
98 | O=C(NC1CCc2ccc(C(=O)N3CCC4(CCN(Cc5c(F)cccc5F)CC4)CC3)cc21)c1ccccc1Cl (stereo not drawn) [IND_CC-513, 2-Chloro-N-[6-[9-[(2,6-difluoro-phenyl)-methyl]-3,9-diazaspiro[5.5]undecane-3-carbonyl]-2,3-dihydro-1H-inden-1-yl]-benzamide]
102 | O=C(NC1CCc2ccc(C(=O)N3CCC4(CCN(Cc5ccc(F)c(F)c5)CC4)CC3)cc21)c1ccccc1Cl (stereo not drawn) [IND_CC-514, 2-Chloro-N-[6-[9-[(3,4-difluoro-phenyl)-methyl]-3,9-diazaspiro[5.5]undecane-3-carbonyl]-2,3-dihydro-1H-inden-1-yl]-benzamide]
104 | O=C(NC1CCc2ccc(C(=O)N3CCC4(CCN(Cc5cc(F)ccc5F)CC4)CC3)cc21)c1ccccc1Cl (stereo not drawn) [IND_CC-515, 2-Chloro-N-[6-[9-[(2,5-difluoro-phenyl)-methyl]-3,9-diazaspiro[5.5]undecane-3-carbonyl]-2,3-dihydro-1H-inden-1-yl]-benzamide]
102 | O=C(NC1CCc2ccc(C(=O)N3CCC4(CCN(Cc5ccc(F)cc5F)CC4)CC3)cc21)c1ccccc1Cl (stereo not drawn) [IND_CC-516, 2-Chloro-N-[6-[9-[(2,4-difluoro-phenyl)-methyl]-3,9-diazaspiro[5.5]undecane-3-carbonyl]-2,3-dihydro-1H-inden-1-yl]-benzamide]
90 | COc1cccc(F)c1CN1CCC2(CC1)CCN(C(=O)c1ccc3c(c1)C(NC(=O)c1ccccc1Cl)CC3)CC2 (stereo not drawn) [IND_CC-517, 2-Chloro-N-[6-[9-[(2-fluoro-6-methoxy-phenyl)-methyl]-3,9-diazaspiro[5.5]undecane-3-carbonyl]-2,3-dihydro-1H-inden-1-yl]-benzamide]
86 | O=C(c1ccc2c(c1)C(N(C(=O)c1ccccc1Cl)C1CC1)CC2)N1CCC2(CCN(Cc3cccnc3)CC2)C1 (stereo not drawn) [IND_CC-518, 2-Chloro-N-cyclopropyl-N-[6-[8-(pyridin-3-yl-methyl)-2,8-diazaspiro[4.5]decane-2-carbonyl]-2,3-dihydro-1H-inden-1-yl]-benzamide]
53 | Cn1cccc1CN1CCC2(CC1)CCN(C(=O)c1ccc3c(c1)C(N(C(=O)c1ccccc1Cl)C1CC1)CC3)C2 (stereo not drawn) [IND_CC-519, 2-Chloro-N-cyclopropyl-N-[6-[8-[(1-methyl-1H-pyrrol-2-yl)-methyl]-2,8-diazaspiro[4.5]decane-2-carbonyl]-2,3-dihydro-1H-inden-1-yl]-benzamide]
72 | O=C(c1ccc2c(c1)C(N(C(=O)c1ccccc1Cl)C1CC1)CC2)N1CCC2(CCN(Cc3c(F)cccc3F)CC2)C1 (stereo not drawn) [IND_CC-520, 2-Chloro-N-cyclopropyl-N-[6-[8-[(2,6-difluoro-phenyl)-methyl]-2,8-diazaspiro[4.5]decane-2-carbonyl]-2,3-dihydro-1H-inden-1-yl]-benzamide]
66 | O=C(c1ccc2c(c1)C(N(C(=O)c1ccccc1Cl)C1CC1)CC2)N1CCC2(CCN(Cc3ccc(F)c(F)c3)CC2)C1 (stereo not drawn) [IND_CC-521, 2-Chloro-N-cyclopropyl-N-[6-[8-[(3,4-difluoro-phenyl)-methyl]-2,8-diazaspiro[4.5]decane-2-carbonyl]-2,3-dihydro-1H-inden-1-yl]-benzamide]

Same assay, conditions: rat B1R, 10 µM

% Inhibition (rat B1R) at 10 μM [%] | Compound
95 | O=C(NC1CCc2ccc(C(=O)N3CCC4(CCN(Cc5ccncc5)CC4)CC3)cc21)c1ccccc1Cl (stereo not drawn) [IND_CC-510, 2-Chloro-N-[6-[9-(pyridin-4-yl-methyl)-3,9-diazaspiro[5.5]undecane-3-carbonyl]-2,3-dihydro-1H-inden-1-yl]-benzamide]
